Here are results for three compounds from ChEMBL document CHEMBL5154827, “Discovery of S-217622, a Noncovalent Oral SARS-CoV-2 3CL Protease Inhibitor Clinical Candidate for Treating COVID-19” (J Med Chem, 2022).

One series concerns NIH3T3. In words: Phototoxicity in BALB/c mouse 3T3 fibroblast incubated for 1 hr by measuring neutral-red extraction from cells. It counts as toxicity, cell-based. Particulars: nih3t3, 1 h.
The target of series [1] is T1, Chymotrypsin (Homo sapiens, UniProt Q99895+P17538+P40313+Q6GPI1). In words: Inhibition of human pancreas chymotrypsin at 100 uM using Suc-Ala-Ala-Pro-Phe-AMC as substrate preincubated for 15 mins incubated followed by addition of substrate measured after 60 mins by measuring amount of AMC formed by spectrofluorimetric method. Type of series: protein assay. Particulars: time 75.0 min.

For series [2], the target named is Human immunodeficiency virus type 1 protease (Human immunodeficiency virus 1) (UniProt Q72874). In words: Inhibition of HIV-1 protease at 100 uM.
The nature of series [3]: Antiviral activity against HCoV-OC43 infected in MRC5 cells assessed as inhibition of viral cytopathic effect measured after 42 hrs by real-time PCR method. Particulars: Betacoronavirus 1, OC43, MRC5, 42 h. Type of series: functional, cell-based, Human coronavirus OC43. On the technique in general: Protection from cytopathic effect is a common read-out in antiviral testing.

Series [4] addresses T1, Chymotrypsin. In words: Inhibition of human pancreas chymotrypsin using Suc-Ala-Ala-Pro-Phe-AMC as substrate preincubated for 15 mins incubated followed by addition of substrate measured after 60 mins by measuring amount of AMC formed by spectrofluorimetric method. Type of series: protein assay.
The nature of series [5]: Elimination half life in Sprague-Dawley rat at 0.5 micromol/mL/kg, iv measured for 3 to 360 mins by LC-MS/MS analysis. It counts as ADME, organism-based. Particulars: in vivo, time 3-360 min, dose 0.5 µmol/kg, read-out: LambdaZ (converted).

Regarding `Cn1cnc(Cn2c(=O)[nH]/c(=N\c3cc4cn(C)nc4cc3Cl)n(Cc3cc(F)c(F)cc3F)c2=O)n1`, the Activity result in the series with NIH3T3 is recorded as “Non-Toxic”. Moreover, the inhibition (on Chymotrypsin [1]; in series [2]) was less than 50% each time. Further, the EC50 in series [3] turned out to be 74 nM. This compound gave an IC50 at Chymotrypsin [4] greater than 100 µM.

As for `CNC(=O)Cn1c(=O)[nH]/c(=N\c2cc3cn(C)nc3cc2Cl)n(Cc2cc(F)c(F)c(F)c2)c1=O`, in series [5], the half-life was 78 min.

As for `CNC(=O)Cn1c(=O)[nH]/c(=N\c2ccc(OC(F)F)cc2C)n(Cc2cc(F)c(F)c(F)c2)c1=O`, in series [5], the half-life is 126 min.

A word on the inhibition: it is the relative decrease from the control value, in per cent. The low end stands for little suppression, the high end for strong suppression. As a reminder, the EC50 is the concentration needed to bring the measured effect to its halfway point. A word on the IC50: it is the concentration that inhibits the measured activity by half. Read a high IC50 as a need for much substance.
